# Laboratory results from patent US10259810B2, “N-sulfonylated pyrazolo[3,4-b]pyridin-6-carboxamides and method of use” (AbbVie S.à.r.l., priority 2015, dated 2019).
# Legend:
# ΔF508-CFTR [1] = biological target: T1, ΔF508-CFTR (Homo sapiens, UniProt P13569, DEL508-508); test: CFTR cell surface levels using HRP-tagged ΔF508-CFTR expressing CFBE cells, intrinsic corrector capacity; type: cell-based; design: % Activation: concentration or dose not given beside the values
# T1 construct: host or cells: CFBE41o-, doxycycline-inducible
# Outline: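 Read-out: chemiluminescent HRP activity of ECL4-HRP-tagged ΔF508-CFTR at the cell surface, 15 min substrate in dark. Normalized as 100×(sample−DMSO)/(positive control−DMSO).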
# ΔF508-CFTR [2] = biological target: T1, ΔF508-CFTR; test: CFTR cell surface levels using HRP-tagged ΔF508-CFTR expressing CFBE cells, in the presence of a co-corrector; type: cell-based
# Outline: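 Chemiluminescent read-out of surface HRP (15 min, dark) after PBS washes. Activity is normalized as 100×(sample−DMSO)/(3 μM co-corrector alone−DMSO).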
# [3] = HRP-tagged ΔF508-CFTR expressing CFBE41o- cells, compound alone (intrinsic corrector capacity), 20 hours at 33° C.
# [4] = HRP-tagged ΔF508-CFTR expressing CFBE41o- cells, compound alone (intrinsic corrector capacity), 20 hours at 33° C., read-out: EC50
# [5] = HRP-tagged ΔF508-CFTR CFBE cells, in the presence of 3 μM co-corrector
# [6] = HRP-tagged ΔF508-CFTR CFBE cells, in the presence of 3 μM co-corrector, read-out: EC50
# T1 sequence (P13569 with tags, fused parts or gaps DEL508-508): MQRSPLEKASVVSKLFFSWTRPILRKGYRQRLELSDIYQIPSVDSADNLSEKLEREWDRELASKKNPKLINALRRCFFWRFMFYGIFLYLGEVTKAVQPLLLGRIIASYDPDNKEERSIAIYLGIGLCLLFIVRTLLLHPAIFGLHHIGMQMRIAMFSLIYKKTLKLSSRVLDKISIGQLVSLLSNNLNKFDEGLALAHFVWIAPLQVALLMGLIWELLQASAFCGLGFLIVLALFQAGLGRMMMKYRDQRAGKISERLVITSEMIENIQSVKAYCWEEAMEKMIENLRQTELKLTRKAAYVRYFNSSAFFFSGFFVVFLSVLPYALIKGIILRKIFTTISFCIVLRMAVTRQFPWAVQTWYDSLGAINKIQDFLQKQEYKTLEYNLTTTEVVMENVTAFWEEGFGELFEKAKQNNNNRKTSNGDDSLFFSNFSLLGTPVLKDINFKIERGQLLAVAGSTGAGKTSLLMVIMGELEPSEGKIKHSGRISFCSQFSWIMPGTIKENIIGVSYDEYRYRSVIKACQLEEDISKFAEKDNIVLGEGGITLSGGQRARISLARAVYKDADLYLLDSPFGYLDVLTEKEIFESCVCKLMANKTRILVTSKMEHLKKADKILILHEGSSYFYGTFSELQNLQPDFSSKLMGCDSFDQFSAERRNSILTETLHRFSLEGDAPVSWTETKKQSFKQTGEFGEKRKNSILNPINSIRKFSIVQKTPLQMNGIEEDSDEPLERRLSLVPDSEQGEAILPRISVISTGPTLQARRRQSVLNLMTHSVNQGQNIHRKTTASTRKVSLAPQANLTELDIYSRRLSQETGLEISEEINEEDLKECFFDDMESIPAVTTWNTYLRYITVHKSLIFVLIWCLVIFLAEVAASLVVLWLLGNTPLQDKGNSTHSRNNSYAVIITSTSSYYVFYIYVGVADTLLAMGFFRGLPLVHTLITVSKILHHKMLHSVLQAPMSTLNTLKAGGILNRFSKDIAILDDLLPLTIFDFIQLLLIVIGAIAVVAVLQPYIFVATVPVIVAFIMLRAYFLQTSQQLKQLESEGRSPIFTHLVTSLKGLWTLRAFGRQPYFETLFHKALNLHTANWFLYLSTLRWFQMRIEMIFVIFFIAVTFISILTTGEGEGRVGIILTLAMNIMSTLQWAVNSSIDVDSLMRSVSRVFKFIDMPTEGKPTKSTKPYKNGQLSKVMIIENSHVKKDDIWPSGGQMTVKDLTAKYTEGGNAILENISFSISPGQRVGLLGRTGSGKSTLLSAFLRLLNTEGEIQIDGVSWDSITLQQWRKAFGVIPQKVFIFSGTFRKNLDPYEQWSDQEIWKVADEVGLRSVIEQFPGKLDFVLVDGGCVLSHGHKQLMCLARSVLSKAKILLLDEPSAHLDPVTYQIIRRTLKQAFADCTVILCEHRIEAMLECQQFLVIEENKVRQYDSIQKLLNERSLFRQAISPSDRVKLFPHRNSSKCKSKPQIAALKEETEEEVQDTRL
Structure (SMILES),% Activation (ΔF508-CFTR [1]; [3]),EC50 (ΔF508-CFTR [1]; [4]),% Activation (ΔF508-CFTR [2]; [5]),EC50 (ΔF508-CFTR [2]; [6]),EC50 (ΔF508-CFTR [1]),EC50 (ΔF508-CFTR [2])
"CN(C)S(=O)(=O)NC(=O)c1cc(N2CCC(N3CCOCC3)CC2)c2c(C3CCC3)nn(-c3cccc(C(F)(F)F)c3)c2n1 [Compound 513, 3-cyclobutyl-N-(dimethylsulfamoyl)-4-[4-(morpholin-4-yl)piperidin-1-yl]-1-[3-(trifluoromethyl)phenyl]-1H-pyrazolo[3,4-b]pyridine-6-carboxamide]",278.5%,101 nM,476.3%,66.7 nM,–,–
"COCC1CCN(c2cc(C(=O)NS(=O)(=O)C3(C)CC3)nc3c2c(C2CCC2)nn3-c2ccccc2)CC1 [Compound 374, 3-cyclobutyl-4-[4-(methoxymethyl)piperidin-1-yl]-N-(1-methylcyclopropane-1-sulfonyl)-1-phenyl-1H-pyrazolo[3,4-b]pyridine-6-carboxamide]",240.7%,254 nM,426.05%,196 nM,–,–
"CCS(=O)(=O)NC(=O)c1cc(N2CCC(CN3CCCC3)CC2)c2c(C3CCC3)nn(-c3ccccc3)c2n1 [Compound 463, 3-cyclobutyl-N-(ethanesulfonyl)-1-phenyl-4-{4-[(pyrrolidin-1-yl)methyl]piperidin-1-yl}-1H-pyrazolo[3,4-b]pyridine-6-carboxamide]",263.9%,419 nM,490.6%,194 nM,–,–
"O=C(NS(=O)(=O)N1CCOCC1)c1cc(N2CCC(N3CCOCC3)CC2)c2c(C3CCC3)nn(-c3ccccc3)c2n1 [Compound 383, 3-cyclobutyl-N-(morpholine-4-sulfonyl)-4-[4-(morpholin-4-yl)piperidin-1-yl]-1-phenyl-1H-pyrazolo[3,4-b]pyridine-6-carboxamide]",202.9%,–,412.20%,–,–,–
"CS(=O)(=O)NC(=O)c1cc(N2CCC[C@@H](CO)C2)c2c(C3CCC3)nn(-c3ccccc3)c2n1 [Compound 349, 3-cyclobutyl-4-[(3R)-3-(hydroxymethyl)piperidin-1-yl]-N-(methanesulfonyl)-1-phenyl-1H-pyrazolo[3,4-b]pyridine-6-carboxamide]",161.7%,–,327.9%,–,512 nM,424 nM
"O=C(NS(=O)(=O)C1CC1)c1cc(N2CCC(CN3CCCC3)CC2)c2c(C3CCC3)nn(-c3ccccc3)c2n1 [Compound 462, 3-cyclobutyl-N-(cyclopropanesulfonyl)-1-phenyl-4-{4-[(pyrrolidin-1-yl)methyl]piperidin-1-yl}-1H-pyrazolo[3,4-b]pyridine-6-carboxamide]",317.4%,776 nM,495.1%,107 nM,–,–
"CC1(S(=O)(=O)NC(=O)c2cc(N3CCC(CN4CCCC4)CC3)c3c(C4CCC4)nn(-c4ccccc4)c3n2)CC1 [Compound 461, 3-cyclobutyl-N-(1-methylcyclopropane-1-sulfonyl)-1-phenyl-4-{4-[(pyrrolidin-1-yl)methyl]piperidin-1-yl}-1H-pyrazolo[3,4-b]pyridine-6-carboxamide]",212.3%,209 nM,364.1%,177 nM,–,–
"COC1CCN(C2CCN(c3cc(C(=O)NS(C)(=O)=O)nc4c3c(OC(C)C)nn4-c3ccc(F)cc3)CC2)CC1 [Compound 644, 1-(4-fluorophenyl)-N-(methanesulfonyl)-4-(4-methoxy[1,4'-bipiperidin]-1'-yl)-3-[(propan-2-yl)oxy]-1H-pyrazolo[3,4-b]pyridine-6-carboxamide]",266.9%,253 nM,529.95%,160 nM,–,–
"CCS(=O)(=O)NC(=O)c1cc(-c2ccc(N3CCOCC3)nc2)c2c(C)nn(-c3cccc(C(F)(F)F)c3)c2n1 [Compound 58, N-(ethanesulfonyl)-3-methyl-4-[6-(morpholin-4-yl)pyridin-3-yl]-1-[3-(trifluoromethyl)phenyl]-1H-pyrazolo[3,4-b]pyridine-6-carboxamide]",196.2%,756 nM,352.5%,422 nM,–,–
"CC(C)c1nn(-c2ccc(F)cc2)c2nc(C(=O)NS(C)(=O)=O)cc(OCC3(C)COC3)c12 [Compound 293, 1-(4-fluorophenyl)-N-(methanesulfonyl)-4-[(3-methyloxetan-3-yl)methoxy]-3-(propan-2-yl)-1H-pyrazolo[3,4-b]pyridine-6-carboxamide]",113.3%,622 nM,317.1%,480 nM,–,–
"CCS(=O)(=O)NC(=O)c1cc(-c2ccc(N3CCOCC3)nc2)c2c(C)nn(-c3ccc(F)cc3F)c2n1 [Compound 61, 1-(2,4-difluorophenyl)-N-(ethanesulfonyl)-3-methyl-4-[6-(morpholin-4-yl)pyridin-3-yl]-1H-pyrazolo[3,4-b]pyridine-6-carboxamide]",184.35%,1000 nM,415.3%,506 nM,–,–
"O=C(NS(=O)(=O)N1CCC(N2CCCCC2)CC1)c1cc(OCC2CCOCC2)c2c(C3CCC3)nn(-c3ccccc3)c2n1 [Compound 353, N-([1,4'-bipiperidine]-1'-sulfonyl)-3-cyclobutyl-4-[(oxan-4-yl)methoxy]-1-phenyl-1H-pyrazolo[3,4-b]pyridine-6-carboxamide]",56.22%,87.9 nM,193.45%,346 nM,–,–
"CC(C)c1nn(-c2ccc(F)cc2)c2nc(C(=O)NS(C)(=O)=O)cc(OCCCN3CCCCC3)c12 [Compound 307, 1-(4-fluorophenyl)-N-(methanesulfonyl)-4-[3-(piperidin-1-yl)propoxy]-3-(propan-2-yl)-1H-pyrazolo[3,4-b]pyridine-6-carboxamide]",172.7%,3330 nM,299.25%,1280 nM,–,–
"CC(C)c1nn(-c2cccc(N(C)C)c2)c2nc(C(=O)NS(C)(=O)=O)cc(-c3cnc(N(C)C)nc3)c12 [Compound 77, 1-[3-(dimethylamino)phenyl]-4-[2-(dimethylamino)pyrimidin-5-yl]-N-(methanesulfonyl)-3-(propan-2-yl)-1H-pyrazolo[3,4-b]pyridine-6-carboxamide]",296.45%,639 nM,449.85%,831 nM,–,–
"COc1ccc(-n2nc(C(C)C)c3c(-c4ccc(N(C)C)cc4)cc(C(=O)NS(C)(=O)=O)nc32)cn1 [Compound 17, 4-[4-(dimethylamino)phenyl]-N-(methanesulfonyl)-1-(6-methoxypyridin-3-yl)-3-(propan-2-yl)-1H-pyrazolo[3,4-b]pyridine-6-carboxamide]",140.75%,1230 nM,320%,1120 nM,–,–
"CC(C)c1nn(C2CCCCC2)c2nc(C(=O)NS(C)(=O)=O)cc(-c3cnc(N(C)C)nc3)c12 [Compound 9, 1-cyclohexyl-4-[2-(dimethylamino)pyrimidin-5-yl]-N-(methanesulfonyl)-3-(propan-2-yl)-1H-pyrazolo[3,4-b]pyridine-6-carboxamide]",143.05%,786 nM,335%,505 nM,–,–
"CC(=O)N1CCC2CN(c3cc(C(=O)NS(C)(=O)=O)nc4c3c(C3CCC3)nn4-c3ccccc3)CCC21 (stereo not shown) [Compound 216, 4-(1-acetyloctahydro-5H-pyrrolo[3,2-c]pyridin-5-yl)-3-cyclobutyl-N-(methanesulfonyl)-1-phenyl-1H-pyrazolo[3,4-b]pyridine-6-carboxamide]",275.67%,766 nM,456.1%,300 nM,–,–
"O=C(c1cc(N2CCC(CN3CCCC3)CC2)c2c(C3CCC3)nn(-c3ccccc3)c2n1)N1CCCCS1(=O)=O [Compound 663, 2-(3-cyclobutyl-1-phenyl-4-{4-[(pyrrolidin-1-yl)methyl]piperidin-1-yl}-1H-pyrazolo[3,4-b]pyridine-6-carbonyl)-1λ^6,2-thiazinane-1,1-dione]",57.9%,234 nM,206.5%,103 nM,–,–
"CC(C)c1nn(-c2cccc(N3CCOCC3)c2)c2nc(C(=O)NS(C)(=O)=O)cc(-c3cnc(N(C)C)nc3)c12 [Compound 29, 4-[2-(dimethylamino)pyrimidin-5-yl]-N-(methanesulfonyl)-1-[3-(morpholin-4-yl)phenyl]-3-(propan-2-yl)-1H-pyrazolo[3,4-b]pyridine-6-carboxamide]",328.4%,645 nM,591.4%,824 nM,–,–
"COS(=O)(=O)NC(=O)c1cc(N2CCC(N3CCOCC3)CC2)c2c(C3CCC3)nn(-c3ccc(F)cc3)c2n1 [Compound 606, methyl {3-cyclobutyl-1-(4-fluorophenyl)-4-[4-(morpholin-4-yl)piperidin-1-yl]-1H-pyrazolo[3,4-b]pyridine-6-carbonyl}sulfamate]",283.8%,973 nM,513.7%,469 nM,–,–
"Cc1nn(C2CCCCC2)c2nc(C(=O)NS(=O)(=O)C3CC3)cc(-c3ccc(N4CCOCC4)cc3)c12 [Compound 239, 1-cyclohexyl-N-(cyclopropanesulfonyl)-3-methyl-4-[4-(morpholin-4-yl)phenyl]-1H-pyrazolo[3,4-b]pyridine-6-carboxamide]",184.6%,999 nM,431.55%,1240 nM,–,–
